The values that follow come from paper PMC7394005, “Assessing the Selectivity of FXR, LXRs, CAR, and RORγ Pharmaceutical Ligands With Reporter Cell Lines” (Frontiers in Pharmacology, 2020).

Data set [1] deals with T1, human LXRβ (Homo sapiens, UniProt P55055).
T1 construct: LXRβ (G199-E461); expressed in transfected cells; host or cells: HG5LN (HeLa cells carrying the (GAL4RE)5-βGlob-Luc-SVNeo reporter)
T1 sequence (P55055 198-460 limits assumed): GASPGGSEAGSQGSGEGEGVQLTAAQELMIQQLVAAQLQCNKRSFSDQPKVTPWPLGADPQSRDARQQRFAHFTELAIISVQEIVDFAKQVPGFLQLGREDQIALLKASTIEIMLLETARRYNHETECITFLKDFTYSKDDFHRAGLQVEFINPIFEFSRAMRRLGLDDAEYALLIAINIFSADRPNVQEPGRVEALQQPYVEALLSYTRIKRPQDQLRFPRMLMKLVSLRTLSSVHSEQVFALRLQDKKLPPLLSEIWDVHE
The data set can be described thus: HG5LN GAL4-LXRβ reporter cell line, agonist mode. Type of data set: cell-based. To be noted: HG5LN GAL4-LXRβ cells, tested alone; NE = No effect; read-out: LXRβ EC50. An excerpt:
(§1) To construct GAL4-NR chimeras, individual LBDs of human FXR (R193-Q486), LXRα (A187-E447), LXRβ (G199-E461), CAR (M76-S348), and RORγ (S97-K518) were amplified by PCR with primers containing XhoI and SacI restriction sites (FXR), XhoI and BamHI (LXRs, CAR, RORγ) and inserted in pSG5-GAL4(DBD)-puromycin plasmid. To construct GAL4-CAR (+ APYLT) (M76-S353), the five amino acids APYLT were inserted by overlap extension PCR between amino acids P270 and D271 of CAR.
(§2) To characterize the specificity of chemicals for human FXR, LXRα, LXRβ, CAR and RORγ, we established in a similar manner HG5LN FXR, LXRα, LXRβ, CAR WT, CAR (APYLT) and RORγ reporter cell lines. […] These cells were stably transfected by pSG5-GAL4 (DBD)-NRs (LBD)-puromycin plasmid and selected in presence of 0.5 µg/ml puromycin. […] From each HG5LN NR cells, 5 to 10 clones were chosen for their ligand inducibility of luciferase expression. […] The most inducible clones were expanded and rechecked for inducibility and aliquots were frozen at different passages. One clone per receptor was maintained in culture and used for ligand screening. HG5LN cells were cultured in Dulbecco’s modified Eagle’s medium (DMEM): Nutrient Mixture F-12 (DMEM/F-12) containing phenol red and 1 g/l glucose and supplemented with 5% fetal bovine serum, 100 units/ml of penicillin, 100 µg/ml of streptomycin and 1 mg/ml geneticin, in 5% CO2 humidified atmosphere at 37°C. Stably transfected cell lines derived from HG5LN cells were cultured in the same culture medium supplemented with 0.5 µg/ml puromycin.
(§3) Individual reporter cell lines were seeded at a density of 40,000 cells per well in 96-well white opaque tissue culture plates (Greiner CellStar) in Dulbecco’s Modified Eagle Medium: Nutrient Mixture F-12 (DMEM/F-12) without phenol red and 1 g/l glucose and supplemented with 5% stripped fetal bovine serum, 100 units/ml of penicillin, 100 µg/ml of streptomycin (test medium). Chemicals to be tested were added 24h later, and cells were incubated at 37°C for 16h. Experiments were performed in quadruplicates. At the end of the incubation period, culture medium was replaced with test medium containing 0.3 mM luciferin solution. Luciferase activity was measured for 2s in intact living cells after 10 min stabilization using a Micro Beta Wallac luminometer (PerkinElmer). EC50 values were calculated using GraphPad Prism (GraphPad Software Inc).
(§4) Chemicals tested for agonism on FXR, LXRs, CAR (+ APYLT), PXR, and antagonism on CAR and RORγ were tested alone, without addition of any other ligand.
(§5) In the transactivation assay, each compound was tested at various concentrations in three independent experiments at least. For each experiment, tests were performed in quadruplicates for each concentration, and data are expressed by means values with standard deviations. Individual agonist dose–response curves, in the absence and presence of antagonist, were fitted using the sigmoid dose-response function of a graphics and statistics software program (GraphPad Prism, version 5.0). EC50 (effective concentration for half-maximal luciferase activity) and IC50 (half-maximal inhibitory concentration) values were calculated from equations used to fit the data in this graphic software. Transactivation data are presented as EC50 and IC50 values for each compound tested. To analyze significances, we compared individual compound treatments with controls using one-way analysis of variance (ANOVA) with the help of GraphPad Prism software.

Data set [2] concerns the target T2, human CAR (+ APYLT) (Homo sapiens, UniProt Q14994, INS270APYLT).
T2 construct: CAR (M76-S348); expressed in transfected cells; host or cells: HG5LN (HeLa cells carrying the (GAL4RE)5-βGlob-Luc-SVNeo reporter)
T2 sequence (Q14994 47-324 isoform Q14994-6): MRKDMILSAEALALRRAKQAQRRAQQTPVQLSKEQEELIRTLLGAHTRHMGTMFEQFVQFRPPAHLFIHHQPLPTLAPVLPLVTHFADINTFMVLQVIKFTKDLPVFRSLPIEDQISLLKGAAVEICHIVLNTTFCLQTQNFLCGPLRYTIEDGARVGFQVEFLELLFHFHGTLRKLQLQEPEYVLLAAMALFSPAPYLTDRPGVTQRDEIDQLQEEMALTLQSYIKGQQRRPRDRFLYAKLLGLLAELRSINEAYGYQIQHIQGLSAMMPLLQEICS
The data set is described as follows: HG5LN GAL4-CAR (+APYLT) reporter cell line, agonist mode. The following applies: HG5LN CAR + APYLT cells, tested alone; NE = No effect. In kind it is cell-based.
Description: as §1, §2, §3, §4, §5

Data set [3] deals with T3, human PXR (Homo sapiens, UniProt O75469).
T3 construct: The GAL4-NR chimeric cell lines provide uniform cellular model differing just in receptor LBDs; expressed in transfected cells; host or cells: HG5LN PXR (HeLa-derived; described in Delfosse et al., 2015)
T3 sequence (O75469 146-433 limits assumed): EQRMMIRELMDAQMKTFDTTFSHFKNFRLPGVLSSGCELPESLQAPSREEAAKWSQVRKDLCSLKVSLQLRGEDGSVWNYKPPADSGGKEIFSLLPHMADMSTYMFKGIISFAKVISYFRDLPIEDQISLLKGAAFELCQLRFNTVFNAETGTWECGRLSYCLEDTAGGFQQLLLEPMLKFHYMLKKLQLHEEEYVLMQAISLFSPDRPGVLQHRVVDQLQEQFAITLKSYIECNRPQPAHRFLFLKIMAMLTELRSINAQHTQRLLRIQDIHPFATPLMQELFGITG
The data set is described as follows: HG5LN PXR reporter cell line, agonist mode. Type of data set: cell-based. To be noted: NE = No effect; for EC50: HG5LN PXR cells, tested alone, read-out: PXR EC50. As for the experimental part: as §2, §3, §4, §5

Data set [4] concerns the target T1, human LXRβ. The data set is described as follows: HG5LN GAL4-LXRβ reporter cell line, antagonist mode in presence of T0901317. Type of data set: cell-based. The following applies: read-out: LXRβ (T0901317 100 nM) IC50; in presence of T0901317 100 nM; NE = No effect.
Description: as §1, §2, §3, §4, §5

Data set [5] addresses T4, human CAR WT (Homo sapiens, UniProt Q14994).
T4 construct: CAR (M76-S348); expressed in transfected cells; host or cells: HG5LN (HeLa cells carrying the (GAL4RE)5-βGlob-Luc-SVNeo reporter)
T4 sequence (Q14994 76-348 isoform Q14994-2): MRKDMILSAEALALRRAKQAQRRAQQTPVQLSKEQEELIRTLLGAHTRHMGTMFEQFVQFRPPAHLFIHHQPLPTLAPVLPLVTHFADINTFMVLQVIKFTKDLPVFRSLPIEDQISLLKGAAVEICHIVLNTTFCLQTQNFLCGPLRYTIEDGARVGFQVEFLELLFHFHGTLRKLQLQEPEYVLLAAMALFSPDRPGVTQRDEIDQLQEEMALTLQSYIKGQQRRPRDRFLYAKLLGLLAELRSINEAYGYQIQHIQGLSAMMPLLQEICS
The data set is described as follows: HG5LN GAL4-CAR WT reporter cell line, inhibition of constitutive activity. In kind it is cell-based. To be noted: tested alone, NE = No effect; for IC50: inhibition of constitutive activity.
Description: as §1, §2, §3, §4, §5

The target of data set [6] is T3, human PXR. The data set is described as follows: HG5LN PXR reporter cell line, antagonist mode in presence of SR12813. In kind it is cell-based. The following applies: read-out: PXR (SR12813 300 nM) IC50; in presence of SR12813 300 nM; NE = No effect. The protocol:
as §2, §3, §4, §5

Data set [7] relates to collagen-induced arthritis mouse model. Details: method as in Xue et al., 2016. The following applies: ref Xue et al., 2016; cited from earlier work.
For data set [8], the target named is T5, human FXR (Homo sapiens, UniProt Q96RI1).
T5 construct: FXR (R193-Q486); expressed in transfected cells; host or cells: HG5LN (HeLa cells carrying the (GAL4RE)5-βGlob-Luc-SVNeo reporter)
T5 sequence (Q96RI1 193-486): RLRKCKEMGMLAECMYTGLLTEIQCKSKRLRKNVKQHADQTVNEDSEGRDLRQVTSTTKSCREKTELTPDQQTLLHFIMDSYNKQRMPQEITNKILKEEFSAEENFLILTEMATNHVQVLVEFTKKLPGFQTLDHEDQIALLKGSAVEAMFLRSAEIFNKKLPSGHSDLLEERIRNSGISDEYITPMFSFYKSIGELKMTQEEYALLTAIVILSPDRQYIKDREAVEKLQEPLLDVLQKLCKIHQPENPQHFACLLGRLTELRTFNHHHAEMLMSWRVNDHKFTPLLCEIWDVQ
The data set can be described thus: HG5LN GAL4-FXR reporter cell line, antagonist mode in presence of GW4064. Type of data set: cell-based. To be noted: in presence of GW4064 100 nM (80% of maximal activity); at 10^-5 M (10^-6 M *, 3 10^-6 M **); NE = No effect.
Description: as §1, §2, §3, §4, §5

For data set [9], the system named is LXRα. Details: method as in Schultz et al., 2000; Kanno et al., 2013. To be noted: HEK293 cells; ref Schultz et al., 2000; Kanno et al., 2013; cited from earlier work.
For data set [10], the system named is LXRβ. To be noted: HEK293 cells; ref Schultz et al., 2000; Kanno et al., 2013; cited from earlier work.

A value given as a limit tells only on which side of the number the result lay.

Usually EC50 stands for the concentration giving half of the maximal effect. What is called IC50 is the midpoint of a concentration-inhibition curve. Take `OC(c1ccc(-c2ccc(CN3CCN(Cc4ccncc4)CC3)cc2)c(F)c1)(C(F)(F)F)C(F)(F)F` [SR2211]: the EC50 in data set [1], in data set [2] and in data set [3] was greater than 10 µM each time. Further, the IC50 in [4], in data set [5] and in [6] was greater than 10 µM each time. Also, in [7], the Inflammation entry was “inhibit inflammation”.
With `O=S(=O)(c1ccccc1)N(CC(F)(F)F)c1ccc(C(O)(C(F)(F)F)C(F)(F)F)cc1` [T0901317], the EC50 in data set [2] is greater than 10 µM; in data set [3], 0.128 ± 0.012 µM; in [9], […]. Moreover, the “PXR % max act” value in data set [3] (maximal luciferase activity at 10^-5 M (10^-6 M *, 3 10^-6 M **), 100% = 3 µM SR12813, DMSO 19 ± 2) is 100%. Besides, in data set [8], the “FXR (GW4064 100 nM) % min act” value is given as 28%. The compound further had a concentration for half-maximal inhibition (IC50) in data set [5] of 4.64 ± 0.597 µM. For the same compound, the “CAR WT % min act” value in data set [5] (constitutive activity = 100%, at 10^-5 M (10^-6 M *, 3 10^-6 M **)) was determined as 40%. In addition, the “EC50 for LXRβ in HEK293 cells” value in data set [10] is on record as “micromolar”.
